Bridge positions count the residues as written; N and C are the ends. Peptide text beside a SMILES is read from it.
Experiment: Inhibition of matriptase (unknown origin) using Ac-RQFRpNA substrate by spectrophotometry method

| Ki [nM] | SMILES |
| --- | --- |
| 546 | CC[C@H](C)[C@@H]1NC(=O)[C@@H]2CCCN2C(=O)[C@@H]2CCCN2C(=O)[C@H]([C@@H](C)CC)NC(=O)[C@H](CO)NC(=O)[C@H](CCCNC(=N)N)NC(=O)[C@H]([C@@H](C)O)NC(=O)[C@@H]2CSSC[C@H](NC1=O)C(=O)N[C@@H](Cc1ccccc1)C(=O)N1CCC[C@H]1C(=O)N[C@H](C(=O)O)CC(=O)NCC(=O)N[C@@H](CCCNC(=N)N)C(=O)N2 (GRCTRSIPPICFPD-OH; disulfide 3-11; lactam N-14) |
| 87 | C[C@@H](O)[C@@H]1NC(=O)[C@@H](NC(=O)[C@H](CCCNC(=N)N)NC(=O)CN)CSSC[C@@H](C(=O)N[C@@H](Cc2cnc[nH]2)C(=O)O)NC(=O)[C@H](CCCNC(=N)N)NC(=O)[C@@H]2CCCN2C(=O)[C@@H]2CCCN2C(=O)[C@H](CC(=O)O)NC(=O)[C@H](CO)NC(=O)[C@H](CCCCN)NC1=O (H-GRCTKSDPPRCH-OH; disulfide 3-11) |
| 82 | CC[C@H](C)[C@@H]1NC(=O)[C@H](CO)NC(=O)[C@H](CCCCN)NC(=O)[C@H]([C@@H](C)O)NC(=O)[C@@H](NC(=O)[C@H](CCCNC(=N)N)NC(=O)CN)CSSC[C@@H](C(=O)N[C@@H](Cc2cnc[nH]2)C(=O)O)NC(=O)[C@H](CCCNC(=N)N)NC(=O)[C@@H]2CCCN2C(=O)[C@@H]2CCCN2C1=O (H-GRCTKSIPPRCH-OH; disulfide 3-11) |
| > 50000 | CC[C@H](C)[C@@H]1NC(=O)[C@@H]2CCCN2C(=O)[C@@H]2CCCN2C(=O)[C@H](Cc2ccc(O)cc2)NC(=O)[C@H](CO)NC(=O)[C@H](CCCNC(=N)N)NC(=O)[C@H]([C@@H](C)O)NC(=O)[C@@H]2CSSC[C@H](NC1=O)C(=O)N[C@@H](Cc1ccccc1)C(=O)N1CCC[C@H]1C(=O)N[C@H](C(=O)O)CC(=O)NCC(=O)N[C@@H](CCCNC(=N)N)C(=O)N2 (GRCTRSYPPICFPD-OH; disulfide 3-11; lactam N-14) |

Source: BindingDB's records for doi:10.1021/acs.jmedchem.5b01148 (Queensland University of Technology, 2015)
